Assay results: ChEMBL document CHEMBL5291721, “A preclinical secondary pharmacology resource illuminates target-adverse drug reaction associations of marketed drugs” (Nat Commun, 2023)

Experiments:
Acetylcholinesterase = Acetylcholinesterase (Homo sapiens, UniProt P22303); format: functional
[1] = molecular target: T1, Alpha-1A adrenergic receptor (Homo sapiens, UniProt P35348); format: functional, cell-based
T1 sequence (P35348 whole entry): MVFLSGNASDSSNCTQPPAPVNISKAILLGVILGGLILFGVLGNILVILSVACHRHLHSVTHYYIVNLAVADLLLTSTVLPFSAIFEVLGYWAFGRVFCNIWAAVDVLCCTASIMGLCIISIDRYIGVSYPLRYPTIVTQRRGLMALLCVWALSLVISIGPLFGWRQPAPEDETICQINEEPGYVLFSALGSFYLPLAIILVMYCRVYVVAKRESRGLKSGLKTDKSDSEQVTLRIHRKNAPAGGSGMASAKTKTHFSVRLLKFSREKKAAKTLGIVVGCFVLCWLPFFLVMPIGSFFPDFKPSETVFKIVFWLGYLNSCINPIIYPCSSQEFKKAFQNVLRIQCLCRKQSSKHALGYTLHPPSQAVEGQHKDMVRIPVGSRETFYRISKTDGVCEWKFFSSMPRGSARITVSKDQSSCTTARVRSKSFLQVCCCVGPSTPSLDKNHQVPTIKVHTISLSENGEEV

Estrogen receptor = molecular target: T2, Estrogen receptor (Homo sapiens, UniProt P03372)
T2 sequence (P03372 whole entry): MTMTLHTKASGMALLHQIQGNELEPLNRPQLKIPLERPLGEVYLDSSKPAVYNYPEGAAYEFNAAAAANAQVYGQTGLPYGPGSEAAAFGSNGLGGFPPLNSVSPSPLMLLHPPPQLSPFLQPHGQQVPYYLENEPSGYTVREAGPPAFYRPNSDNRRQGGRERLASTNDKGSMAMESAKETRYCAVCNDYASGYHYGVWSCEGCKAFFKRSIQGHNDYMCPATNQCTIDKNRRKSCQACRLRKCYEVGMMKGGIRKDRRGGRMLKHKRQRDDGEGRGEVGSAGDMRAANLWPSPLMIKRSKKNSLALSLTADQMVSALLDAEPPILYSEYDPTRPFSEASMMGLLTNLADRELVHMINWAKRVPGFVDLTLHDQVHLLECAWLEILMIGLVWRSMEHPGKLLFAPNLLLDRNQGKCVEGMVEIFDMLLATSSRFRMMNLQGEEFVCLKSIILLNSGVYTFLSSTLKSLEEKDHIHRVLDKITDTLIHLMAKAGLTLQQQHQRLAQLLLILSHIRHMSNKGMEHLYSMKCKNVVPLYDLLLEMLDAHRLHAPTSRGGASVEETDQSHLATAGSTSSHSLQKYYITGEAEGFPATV

Prothrombin = Prothrombin (Homo sapiens, UniProt P00734); format: functional
Histamine H3 receptor = Histamine H3 receptor (Homo sapiens, UniProt Q9Y5N1)
[2] = molecular target: 5-hydroxytryptamine receptor 2B (Homo sapiens, UniProt P41595); format: functional, cell-based
Progesterone receptor = molecular target: T3, Progesterone receptor (Homo sapiens, UniProt P06401)
T3 sequence (P06401 whole entry): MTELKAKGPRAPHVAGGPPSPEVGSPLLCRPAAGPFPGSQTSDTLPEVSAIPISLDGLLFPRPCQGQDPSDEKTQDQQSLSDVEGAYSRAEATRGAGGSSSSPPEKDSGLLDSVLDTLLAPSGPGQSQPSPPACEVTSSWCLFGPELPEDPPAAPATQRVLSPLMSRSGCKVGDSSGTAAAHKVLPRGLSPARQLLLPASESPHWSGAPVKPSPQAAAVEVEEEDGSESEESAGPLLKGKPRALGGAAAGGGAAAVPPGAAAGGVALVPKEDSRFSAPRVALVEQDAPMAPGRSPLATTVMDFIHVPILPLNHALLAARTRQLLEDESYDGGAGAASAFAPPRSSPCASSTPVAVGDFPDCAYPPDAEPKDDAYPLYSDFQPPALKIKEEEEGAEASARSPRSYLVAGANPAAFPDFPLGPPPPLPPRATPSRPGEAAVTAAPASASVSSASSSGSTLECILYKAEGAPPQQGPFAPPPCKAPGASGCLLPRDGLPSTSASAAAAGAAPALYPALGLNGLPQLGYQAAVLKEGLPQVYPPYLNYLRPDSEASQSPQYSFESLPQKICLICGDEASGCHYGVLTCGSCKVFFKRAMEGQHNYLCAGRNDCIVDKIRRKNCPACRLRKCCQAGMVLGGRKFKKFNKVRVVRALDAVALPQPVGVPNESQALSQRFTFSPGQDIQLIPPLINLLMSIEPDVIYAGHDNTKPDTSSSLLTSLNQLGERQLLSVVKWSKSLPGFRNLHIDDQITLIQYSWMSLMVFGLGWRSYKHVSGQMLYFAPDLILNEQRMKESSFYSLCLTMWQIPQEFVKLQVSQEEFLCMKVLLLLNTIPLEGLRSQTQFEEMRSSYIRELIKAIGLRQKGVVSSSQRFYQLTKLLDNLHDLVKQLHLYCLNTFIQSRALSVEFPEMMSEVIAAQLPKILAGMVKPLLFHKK

Thromboxane A2 receptor = molecular target: T4, Thromboxane A2 receptor (Homo sapiens, UniProt P21731); format: functional, cell-based
T4 sequence (P21731 whole entry): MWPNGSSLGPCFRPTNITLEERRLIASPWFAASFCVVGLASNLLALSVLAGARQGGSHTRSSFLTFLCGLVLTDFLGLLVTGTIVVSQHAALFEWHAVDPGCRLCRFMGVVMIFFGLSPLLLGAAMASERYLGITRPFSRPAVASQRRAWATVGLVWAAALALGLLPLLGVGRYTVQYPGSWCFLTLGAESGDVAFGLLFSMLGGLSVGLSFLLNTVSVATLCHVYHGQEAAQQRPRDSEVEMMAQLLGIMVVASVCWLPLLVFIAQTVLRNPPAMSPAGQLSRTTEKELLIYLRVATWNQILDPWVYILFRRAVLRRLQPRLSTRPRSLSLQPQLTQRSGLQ
Further: assay procedure not described here.

Sequence of Histamine H3 receptor (Q9Y5N1 whole entry): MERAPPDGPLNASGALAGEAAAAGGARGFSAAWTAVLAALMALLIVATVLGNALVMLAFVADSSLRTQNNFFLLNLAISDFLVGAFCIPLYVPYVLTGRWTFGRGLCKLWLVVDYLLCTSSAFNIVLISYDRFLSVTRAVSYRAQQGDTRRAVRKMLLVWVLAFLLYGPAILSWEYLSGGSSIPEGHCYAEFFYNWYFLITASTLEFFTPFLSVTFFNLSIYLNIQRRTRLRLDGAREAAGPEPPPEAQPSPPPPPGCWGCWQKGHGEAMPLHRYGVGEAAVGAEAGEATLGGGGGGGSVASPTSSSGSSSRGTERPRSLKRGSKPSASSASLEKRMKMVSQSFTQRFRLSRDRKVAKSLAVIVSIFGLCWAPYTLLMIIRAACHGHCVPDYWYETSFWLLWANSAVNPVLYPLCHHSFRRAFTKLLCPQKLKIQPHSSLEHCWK
Sequence of 5-hydroxytryptamine receptor 2B (P41595 whole entry): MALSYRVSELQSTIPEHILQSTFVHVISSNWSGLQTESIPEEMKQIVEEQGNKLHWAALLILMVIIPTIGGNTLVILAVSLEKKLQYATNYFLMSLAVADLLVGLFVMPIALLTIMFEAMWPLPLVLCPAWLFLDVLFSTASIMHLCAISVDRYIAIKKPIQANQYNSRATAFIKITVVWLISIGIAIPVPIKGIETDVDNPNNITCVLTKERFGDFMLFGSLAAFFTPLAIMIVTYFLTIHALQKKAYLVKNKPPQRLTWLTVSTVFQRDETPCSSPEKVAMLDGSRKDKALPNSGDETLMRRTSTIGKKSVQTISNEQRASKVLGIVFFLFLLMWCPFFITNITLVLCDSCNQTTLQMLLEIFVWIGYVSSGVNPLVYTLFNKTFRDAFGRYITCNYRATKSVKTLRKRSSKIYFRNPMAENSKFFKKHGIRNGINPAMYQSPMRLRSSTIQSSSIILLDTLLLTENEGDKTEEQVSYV
Sequence of Acetylcholinesterase (P22303 whole entry): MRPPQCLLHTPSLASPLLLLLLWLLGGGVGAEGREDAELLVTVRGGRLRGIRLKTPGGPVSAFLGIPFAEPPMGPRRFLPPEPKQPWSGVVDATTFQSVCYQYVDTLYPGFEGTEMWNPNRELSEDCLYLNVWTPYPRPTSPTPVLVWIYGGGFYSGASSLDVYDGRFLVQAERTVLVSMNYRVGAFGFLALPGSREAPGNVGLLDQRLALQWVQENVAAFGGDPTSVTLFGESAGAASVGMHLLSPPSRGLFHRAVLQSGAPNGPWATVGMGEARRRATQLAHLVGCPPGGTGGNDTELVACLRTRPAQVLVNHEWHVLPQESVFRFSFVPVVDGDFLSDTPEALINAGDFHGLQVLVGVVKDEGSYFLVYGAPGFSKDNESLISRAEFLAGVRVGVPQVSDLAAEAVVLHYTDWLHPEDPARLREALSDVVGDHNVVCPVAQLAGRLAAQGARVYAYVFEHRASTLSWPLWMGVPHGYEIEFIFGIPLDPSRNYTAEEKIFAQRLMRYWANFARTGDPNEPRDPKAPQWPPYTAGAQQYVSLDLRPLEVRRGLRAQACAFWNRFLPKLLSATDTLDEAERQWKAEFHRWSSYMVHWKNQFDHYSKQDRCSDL

Row | Structure (SMILES) | AC50 (Acetylcholinesterase) | AC50 [1] | AC50 (Estrogen receptor) | AC50 (Prothrombin) | AC50 (Histamine H3 receptor) | AC50 [2] | AC50 (Progesterone receptor) | AC50 (Thromboxane A2 receptor)
1 | CN1C(C(=O)Nc2ccccn2)=C(OC(=O)/C=C/c2ccccc2)c2ccccc2S1(=O)=O [PIROXICAM CINNAMATE] | > 30 µM | > 30 µM | > 30 µM | > 30 µM | > 30 µM | > 30 µM | > 30 µM | > 30 µM
2 | CNC(=O)c1cnn(-c2nc(N)c3ncn([C@@H]4O[C@H](CO)[C@@H](O)[C@H]4O)c3n2)c1 [REGADENOSON ANHYDROUS] | > 30 µM | > 30 µM | > 30 µM | > 30 µM | > 30 µM | > 30 µM | > 30 µM | > 30 µM
3 | [H]/N=C(/N)NS(=O)(=O)c1ccc(N)cc1 [SULFAGUANIDINE] | > 30 µM | > 30 µM | > 30 µM | > 30 µM | > 30 µM | > 30 µM | > 30 µM | > 30 µM
4 | CC(=O)O[C@]1(C(C)=O)CC[C@H]2[C@@H]3CCC4=CC(=O)CCC4=C3[C@@H](c3ccc(N(C)C)cc3)C[C@@]21C [ULIPRISTAL ACETATE] | > 30 µM | > 30 µM | 9.29 µM | > 30 µM | > 30 µM | > 30 µM | 0.003 µM | > 30 µM
5 | CC(C)(Oc1ccc(C(=O)c2ccc(Cl)cc2)cc1)C(=O)O [FENOFIBRIC ACID] | > 30 µM | > 30 µM | > 30 µM | > 30 µM | > 30 µM | > 30 µM | > 30 µM | > 30 µM
6 | CC(C)=CCC/C(C)=C/CC/C(C)=C/CC/C(C)=C/CC1=C(C)C(=O)c2ccccc2C1=O [MENATETRENONE] | > 30 µM | > 30 µM | > 30 µM | > 30 µM | > 30 µM | > 30 µM | 13.5 µM | > 30 µM
7 | NC(=O)N/N=C/c1ccc([N+](=O)[O-])o1 [NITROFURAZONE] | > 30 µM | > 30 µM | > 30 µM | > 30 µM | > 30 µM | > 30 µM | > 30 µM | > 30 µM
8 | COc1ccc(C(=O)c2ccccc2)c(O)c1 [OXYBENZONE] | > 30 µM | > 10 µM | > 30 µM | > 30 µM | > 30 µM | > 30 µM | 25.7 µM | > 30 µM
9 | CO[C@H]1/C=C/O[C@@]2(C)Oc3c(C)c(O)c4c(c3C2=O)C2=NC3(CCN(CC(C)C)CC3)NC2=C(NC(=O)/C(C)=C\C=C\[C@H](C)[C@H](O)[C@@H](C)[C@@H](O)[C@@H](C)[C@H](OC(C)=O)[C@@H]1C)C4=O [RIFABUTIN] | > 30 µM | > 30 µM | > 30 µM | > 30 µM | > 30 µM | > 30 µM | > 30 µM | > 30 µM
10 | Cn1c(CCCC(=O)O)nc2cc(N(CCCl)CCCl)ccc21 [BENDAMUSTINE] | > 30 µM | > 30 µM | > 30 µM | > 30 µM | > 30 µM | > 30 µM | > 30 µM | > 30 µM
